Measured values published in patent US5672603A, “Apoptosis regulating composition” (Otsuka Pharmaceutical Co., Ltd., priority 1991, dated 1997).
Entries after “also recorded” stand apart in the source; their conditions may differ.

Experiments:
W/BF1 :(NZW×BXSB)F1 mice = test: Blood cell analysis in autoimmune disease mice; format: in vivo
Procedure: W/BF1 :(NZW×BXSB)F1 mice were used at the age of 14 weeks (purchased from Kiwa Experimental Animal). Groups of 10 mice were used in each experiment.
The mice in respective groups were given a diet (Oriental Yeast), which is usually given to this kind of mice, and water.
Compound 1 (Lot No. 9D87M) was used as suspended in a 0.5% solution of carborymethylcellulose (CMC, Cellogan). Compound 1 was administered to mice by oral garage in doses of 100 and 300 mg/kg body weight/day for 6 weeks from 14 weeks of age to 20 weeks of age according to the 5-day administration and 2-day cessation schedule. As a control, an untreated group was provided. […] Statistic analysis was performed by the generalized Wilcoxon test with respect to the untreated group.
(2) For blood cell analysis, the blood was sampled from the fundus oculi at the age of 14, 16, 18 and 20 weeks. Changes in blood cell (white blood cell, red blood cell and platelet) counts were determined using an automatic blood cell analyzer (Coulter JR, Coulter). The differential (neutrophil and 11 lymphocyte) counts were determined using blood smears stained with Wright-Giemsa stain. For statistical analysis, Student's t test was used, taking the untreated group as control, on each blood sampling day.

[1] = system: CMK cells (platelet-associated antigen, glycoprotein IIb/IIIa); test: Expression of platelet-associated antigen of CMK cells (Plt-1 antibody); format: cell-based, human; details: 30 μg/ml
Procedure: Compound 1 was dissolved in 1N hydrochloric acid and diluted with fetal calf serum (FCS, Gibco) to give a 1 mg/ml solution. This solution was added to RPMI-1640 medium (Flow Laboratories) supplemented 10% FCS and the mixture was neutralized with 1N NaOH and adjusted to a concentration of 30 μg/ml before use.
CMK cells were established by T. Sato et al. from patients with acute megakaryocytic leukemia. They are known to react with anti-platelet antibodies (anti-glycoprotein IIb/IIIa antibody, anti-glycoprotein Ib antibody and Plt-1 antibody). Moreover, it has mega-karyocyte-like properties, such as formation of α granules and a demarcation membrane in the cytoplasm. Therefore, these cells have been used for the analysis of the growth and differentiation of megakaryocytes [Sato, T., et al., Exp. Hematol., 15, 495 (1987); Sunami, S., et al., Blood, 70., 368 (1987); Komatsu, N., et al., Blood, 74(1), 42-48 (1989); Fuse, A., et al., British J. Haematology, 77, 32-36 (1991); Acta Haematologia Japonica 53(2), 294-295, 317-318 (1990)].
CMK cells were supplied by Dr. Takelruki Sato at the Department of Pediatrics, Chiba University School of Medicine. The cells, 5×10^4 cells/ml, were cultured in RPMI-1640 medium supplemented 10% FCS and subcultured every four days.
CMK cells, 1×10^5 cells/ml, were incubated in 10% FCS-added RPMI-1640 medium, containing 30 μg/ml of Compound 1, for 4 days and the expression of platelet-associated antigen on the cell surface was determined by flow cytometry (Coulter) using FITC-labeled Plt-1 antibody (Coulter). The medium containing no Compound 1 was used as a solvent control.
For the analysis of cell surface antigen, 1×10^6 cells/100 μl of CFIK cells were taken into a tube (Fischer) and reacted with 5 μl of FITC-labeled Plt-1 antibody at 4° C. for 30 minutes. The reaction mixture was washed three times with phosphate buffer containing 0.1% bovine serum albumin and determined for the percentage positive cells and fluorescence intensity.
The above-mentioned Plt-1 antibody (Coulter) is an antibody recognizing the platelet-associated antigen, glycoprotein IIb/IIIa and has been reported to increase with differentiation or maturation of CMK cells [Komatsu, N., et al., Blood, 74(1), 42-48 (1989)].

MRL/Mp-1 pr/1 pr mice = test: Therapeutic effect on autoimmune disease in MRL mice; format: in vivo; details: 300 mg/kg oral
From the text: Groups of five female MRL/Mp-1 pr/1 pr mice (purchased at 7 weeks of age from Charles River Japan, Inc.) were used at the age of 19 weeks.
Mice of the above strain are known to spontaneously develop autoimmune diseases such as human systemic lupus erythematosus (SLE)-like immune complex glomerulonephritis, lymphoma, vasculitis and polyarthritis (Theofilopolos, A. and Dixon, F. J., Adv. Immunology, 37, 269 (1985); Murphy, E. D., Roths, J. B., Autoimmunity and lymphoproliferation, Elsevier North Holland, N.Y., 207-221 (1978); Taniguchi, Y., Gendai Iryo, 21, 131 (1989); Abe, C.).
Mice in both the Compound 1-treated group and the control group (untreated group) were given a mouse diet (Oriental Yeast) and water.
Compound 1 was used as suspended in 0.5% carboxymethytcellulose (CMC, Dai-ichi Kogyo Seiyaku Co., Ltd.) solution.
Compound 1 was administered by oral garage in a dose of 300 mg/kg body weight daily from the age of 19 weeks to the age of 25 weeks according to the 5-day administration and 2-day cessation schedule (Compound 1-treated group).
Mice in the respective groups were examined for changes in urinary protein, lymphoma diameter, vasculitis of the auricle, and loss of hair.

COc1ccc(C(=O)N2CCN(c3ccc4c(c3)CCC(=O)N4)CC2)cc1OC [Compound 1, 6-[4-(3,4-Dimethoxybenzoyl)-1-piperazinyl]-3,4-dihydrocarbostyril]
Lymphocytes (W/BF1 :(NZW×BXSB)F1 mice; 100 mg/kg, 14 weeks of age): 6.55 ± 1.11 ×10^3 /mm^3
Neutrophils (W/BF1 :(NZW×BXSB)F1 mice; 100 mg/kg, 14 weeks of age): 0.97 ± 0.21 ×10^3 /mm^3
Platelets (W/BF1 :(NZW×BXSB)F1 mice; 100 mg/kg, 14 weeks of age): 1225.2 ± 187.6 ×10^3 /mm^3
Red blood cells (W/BF1 :(NZW×BXSB)F1 mice; 100 mg/kg, 14 weeks of age): 9.08 ± 0.19 ×10^6 /mm^3
White blood cells (W/BF1 :(NZW×BXSB)F1 mice; 100 mg/kg, 14 weeks of age): 7.53 ± 1.26 ×10^3 /mm^3
Lymphocytes (W/BF1 :(NZW×BXSB)F1 mice; 100 mg/kg, 16 weeks of age): 9.83 ± 2.72 ×10^3 /mm^3
Neutrophils (W/BF1 :(NZW×BXSB)F1 mice; 100 mg/kg, 16 weeks of age): 3.01 ± 2.14 ×10^3 /mm^3
Platelets (W/BF1 :(NZW×BXSB)F1 mice; 100 mg/kg, 16 weeks of age): 749.6 ± 116.6 ×10^3 /mm^3
White blood cells (W/BF1 :(NZW×BXSB)F1 mice; 100 mg/kg, 16 weeks of age): 12.91 ± 4.76 ×10^3 /mm^3
Red blood cells (W/BF1 :(NZW×BXSB)F1 mice; 100 mg/kg, 16 weeks of age, *P < 0.05): 9.06 ± 0.19 ×10^6 /mm^3
Lymphocytes (W/BF1 :(NZW×BXSB)F1 mice; 100 mg/kg, 18 weeks of age): 10.68 ± 3.78 ×10^3 /mm^3
Neutrophils (W/BF1 :(NZW×BXSB)F1 mice; 100 mg/kg, 18 weeks of age): 5.82 ± 1.65 ×10^3 /mm^3
Platelets (W/BF1 :(NZW×BXSB)F1 mice; 100 mg/kg, 18 weeks of age): 524.0 ± 105.6 ×10^3 /mm^3
Red blood cells (W/BF1 :(NZW×BXSB)F1 mice; 100 mg/kg, 18 weeks of age): 8.46 ± 0.34 ×10^6 /mm^3
White blood cells (W/BF1 :(NZW×BXSB)F1 mice; 100 mg/kg, 18 weeks of age): 16.49 ± 4.98 ×10^3 /mm^3
Lymphocytes (W/BF1 :(NZW×BXSB)F1 mice; 100 mg/kg, 20 weeks of age): 8.70 ± 1.02 ×10^3 /mm^3
Neutrophils (W/BF1 :(NZW×BXSB)F1 mice; 100 mg/kg, 20 weeks of age): 3.25 ± 1.06 ×10^3 /mm^3
Platelets (W/BF1 :(NZW×BXSB)F1 mice; 100 mg/kg, 20 weeks of age): 341.1 ± 111.9 ×10^3 /mm^3
White blood cells (W/BF1 :(NZW×BXSB)F1 mice; 100 mg/kg, 20 weeks of age): 11.72 ± 1.71 ×10^3 /mm^3
Red blood cells (W/BF1 :(NZW×BXSB)F1 mice; 100 mg/kg, 20 weeks of age, *P < 0.05): 8.29 ± 0.37 ×10^6 /mm^3
Inhibition of decrease in platelet count (in words) (W/BF1 :(NZW×BXSB)F1 mice; 300 mg/kg/day, 20 weeks of age, vs untreated): significant inhibition
Lymphocytes (W/BF1 :(NZW×BXSB)F1 mice; 300 mg/kg, 14 weeks of age): 4.50 ± 0.63 ×10^3 /mm^3
Neutrophils (W/BF1 :(NZW×BXSB)F1 mice; 300 mg/kg, 14 weeks of age): 0.79 ± 0.19 ×10^3 /mm^3
Platelets (W/BF1 :(NZW×BXSB)F1 mice; 300 mg/kg, 14 weeks of age): 1316.8 ± 86.3 ×10^3 /mm^3
Red blood cells (W/BF1 :(NZW×BXSB)F1 mice; 300 mg/kg, 14 weeks of age): 9.17 ± 0.21 ×10^6 /mm^3
White blood cells (W/BF1 :(NZW×BXSB)F1 mice; 300 mg/kg, 14 weeks of age): 5.46 ± 0.74 ×10^3 /mm^3
Lymphocytes (W/BF1 :(NZW×BXSB)F1 mice; 300 mg/kg, 16 weeks of age): 7.01 ± 0.92 ×10^3 /mm^3
Neutrophils (W/BF1 :(NZW×BXSB)F1 mice; 300 mg/kg, 16 weeks of age): 1.86 ± 0.40 ×10^3 /mm^3
Platelets (W/BF1 :(NZW×BXSB)F1 mice; 300 mg/kg, 16 weeks of age): 1055.8 ± 72.0 ×10^3 /mm^3
Red blood cells (W/BF1 :(NZW×BXSB)F1 mice; 300 mg/kg, 16 weeks of age): 8.43 ± 0.30 ×10^6 /mm^3
White blood cells (W/BF1 :(NZW×BXSB)F1 mice; 300 mg/kg, 16 weeks of age): 9.36 ± 1.77 ×10^3 /mm^3
Lymphocytes (W/BF1 :(NZW×BXSB)F1 mice; 300 mg/kg, 18 weeks of age): 6.16 ± 0.88 ×10^3 /mm^3
Neutrophils (W/BF1 :(NZW×BXSB)F1 mice; 300 mg/kg, 18 weeks of age): 5.65 ± 2.77 ×10^3 /mm^3
Platelets (W/BF1 :(NZW×BXSB)F1 mice; 300 mg/kg, 18 weeks of age): 980.0 ± 114.4 ×10^3 /mm^3
Red blood cells (W/BF1 :(NZW×BXSB)F1 mice; 300 mg/kg, 18 weeks of age): 8.83 ± 0.32 ×10^6 /mm^3
White blood cells (W/BF1 :(NZW×BXSB)F1 mice; 300 mg/kg, 18 weeks of age): 11.90 ± 3.52 ×10^3 /mm^3
Lymphocytes (W/BF1 :(NZW×BXSB)F1 mice; 300 mg/kg, 20 weeks of age): 10.73 ± 5.81 ×10^3 /mm^3
Neutrophils (W/BF1 :(NZW×BXSB)F1 mice; 300 mg/kg, 20 weeks of age): 2.24 ± 0.23 ×10^3 /mm^3
Red blood cells (W/BF1 :(NZW×BXSB)F1 mice; 300 mg/kg, 20 weeks of age): 7.90 ± 0.30 ×10^6 /mm^3
White blood cells (W/BF1 :(NZW×BXSB)F1 mice; 300 mg/kg, 20 weeks of age): 12.97 ± 5.95 ×10^3 /mm^3
Platelets (W/BF1 :(NZW×BXSB)F1 mice; 300 mg/kg, 20 weeks of age, **P < 0.01): 823.3 ± 24.5 ×10^3 /mm^3
Red blood cell count (in words) (W/BF1 :(NZW×BXSB)F1 mice; compared with the platelet count result): A similar result was found for red blood cell count
Effect on white blood cell count (in words) (W/BF1 :(NZW×BXSB)F1 mice; mouse, in vivo): no effect on this parameter
Change in percentage of Plt-1 positive cells (in words) [1]: no change in the percentage of positive cells
Cell count ([1]; 4 days, solvent control 5.8): 3.2 10^5 /ml
Plt-1 percentage positive cells (%) ([1]; 4 days, solvent control 96.1): 96.5%
activity at 30 µg/mL ([1]; Homo sapiens, CMK, 96 h, 4 days, solvent control 100, read-out: Plt-1 mean fluorescence intensity (%)): 192%
fold induction at 30 µg/mL ([1]; Homo sapiens, CMK, read-out: Increase in expression of platelet-associated antigen): 2
Urinary protein (MRL/Mp-1 pr/1 pr mice; 19 to 25 weeks of age, vs control): tendency of inhibition of the increase in urinary protein
Loss of hair (MRL/Mp-1 pr/1 pr mice; FIG. 8, vs control): improvements in vasculitis and loss of hair
Vasculitis (MRL/Mp-1 pr/1 pr mice; FIG. 8, vs control): improvements in vasculitis
Lymphoma size, diameter (MRL/Mp-1 pr/1 pr mice; control 9.0±0.8 mm): 7.8±1.3 mm
Lymphoma (in words) (MRL/Mp-1 pr/1 pr mice; vs control): enlargement of lymphoma was slightly inhibited; also recorded: reduction in lymphoma
